For 104 compounds, cytotoxicity results are on record in ChEMBL document CHEMBL3507680, “University of Dundee, Gates Library screen for HepG2 cell viability”.

SMILES strings stand for the structures.

A short description of the series: Human HepG2 cell viability assay in 384 well format. In kind it is toxicity, cell-based. On the set-up: dose 125 nL, time 70.5 hour; concentration not given beside the values. The note with it: HepG2 cells, read-out: Inhibition.
Consider `CCS(=O)(=O)NC(CCSC)C(=O)Nc1ccccc1C` (centres undefined), for which the cytotoxicity at 70.5 h was -92%.

Regarding `CC(C)n1cnnc1C1CCCN(S(=O)(=O)CC2CCCC2)C1` (centres undefined), the cytotoxicity at 70.5 h was -106%.

Take `CC(NCC(N)=O)c1c(F)cccc1Cl` (centres undefined): the cytotoxicity at 70.5 h was -85.6%.

As for `CC(=O)Nc1ccc(C(=O)N(C)Cc2cccc(F)c2)s1`, the cytotoxicity at 70.5 h is -105%.

For `CCc1nn(C)c2[nH]nc(NC(=O)c3ccccc3COC)c12`, the cytotoxicity at 70.5 h is -101%.

As to `Cc1cc(CNC(C)Cn2cncn2)ccc1Br` (centres undefined), the cytotoxicity at 70.5 h is -87.4%.

Turning to `CC(=O)N1CCC(C(=O)NC2CCc3nccn3C2)CC1` (centres undefined), the cytotoxicity at 70.5 h was -97.6%.

For the compound `CNS(=O)(=O)c1ccc(CNC(=O)N(C)CC(O)COC)cc1` (centres undefined), the cytotoxicity at 70.5 h was -74.7%.

On to `CS(=O)(=O)NCCN(CCCO)C1CCc2ccccc21` (centres undefined), for which the cytotoxicity at 70.5 h is -97.1%.

As to `Cc1cc(CNc2ccccc2N2CCCCC2)no1`, the cytotoxicity at 70.5 h was -24%.

`CN1CCN(c2ccc(Cl)cc2NC(=O)c2ccco2)CC1`: the cytotoxicity at 70.5 h was determined as 12.6%.

For the compound `COc1ccc(CSc2nnc(N)n2C2CC2)cc1F`, the cytotoxicity at 70.5 h was 24.8%.

For the compound `COc1ccc(C)cc1NS(=O)(=O)c1ccc(CCNC(C)=O)s1`, the cytotoxicity at 70.5 h is -4.06%.

Take `CC(=O)NCCc1ccc(S(=O)(=O)Nc2ccc(C)cc2F)s1`: the cytotoxicity at 70.5 h is -2.14%.

Regarding `CN(CCCNC(=O)C1CCCN(C(N)=O)C1)S(C)(=O)=O` (centres undefined), the cytotoxicity at 70.5 h was -9.57%.

As for `COCCN1CCN(CC(O)c2ccc(C(F)(F)F)cc2)CC1` (centres undefined), the cytotoxicity at 70.5 h was -7.3%.

As to `CCOCCN1CCN(CC(O)c2ccc(C(F)(F)F)cc2)CC1` (centres undefined), the cytotoxicity at 70.5 h was -0.521%.

`CC(CO)NC(=O)c1ccc(NCc2ccccc2)cc1` (centres undefined): the cytotoxicity at 70.5 h is -7%.

For `CCC(NC(=O)CCCNC(=O)OC)c1cc(F)ccc1F` (centres undefined), the cytotoxicity at 70.5 h is -3.13%.

In the case of `CN1CCN(c2ccccc2NC(=O)NCCc2ccccc2)CC1`, the cytotoxicity at 70.5 h is -5.11%.

As to `CCC(NC(=O)CNCC(F)(F)F)c1cc(F)ccc1F` (centres undefined), the cytotoxicity at 70.5 h is -6.5%.

For `CCC(NC(=O)NCC(=O)NC(C)C)c1cc(F)ccc1F` (centres undefined), the cytotoxicity at 70.5 h was -3.83%.

Regarding `CC(C)c1ncc(Cl)c(C(=O)N2CCN3CCCCC3C2)n1` (centres undefined), the cytotoxicity at 70.5 h turned out to be 36.2%.

Turning to `CCCOc1cc(F)ccc1NC(=O)NCc1noc(C)n1`, the cytotoxicity at 70.5 h is -3.88%.

On to `CN1CCN(c2ccccc2NC(=O)NCCc2ccc(O)cc2)CC1`, for which the cytotoxicity at 70.5 h is -6.51%.

Consider `CC(C)c1ncc(Cl)c(C(=O)N2CCCN3CCCC3C2)n1` (centres undefined), for which the cytotoxicity at 70.5 h is -0.691%.

In the case of `COCCOCC(=O)Nc1ccnn1-c1ccc(Cl)cc1`, the cytotoxicity at 70.5 h is -0.967%.

Take `CCC(C)(C)NC(=O)Cn1nnc(CN(C)C(=O)c2ccccc2)n1`: the cytotoxicity at 70.5 h is -3.46%.

As to `O=C(CN(CC1CCC1)CC(F)(F)F)N1CCCC1`, the cytotoxicity at 70.5 h was -6.18%.

Regarding `CSCCN1C(=O)CC(C)(c2ccc(Br)cc2)C1=O` (centres undefined), the cytotoxicity at 70.5 h was -5.43%.

`Cc1nnc(CSCc2ccc(OCC(F)(F)F)nc2)o1`: the cytotoxicity at 70.5 h is -4.42%.

For `Cc1ccc(OCC(O)COC2CCOCC2)c(Cl)c1` (centres undefined), the cytotoxicity at 70.5 h is -0.327%.

As for `CCc1nc(CN2CCCC2C(=O)NC)cs1` (centres undefined), the cytotoxicity at 70.5 h is -0.35%.

Turning to `Cc1ccc(OCC(O)COC2CCOCC2)c(Br)c1` (centres undefined), the cytotoxicity at 70.5 h was -10.6%.

For `Cc1noc(C(C)SCc2ccccn2)n1` (centres undefined), the cytotoxicity at 70.5 h is -8.37%.

Take `CSCCC(NC(=O)c1ccccc1)C(=O)N(C)Cc1ccsc1` (centres undefined): the cytotoxicity at 70.5 h was -7%.

Regarding `CC(NC(=O)C1CC1)C(=O)N(C)Cc1ccsc1` (centres undefined), the cytotoxicity at 70.5 h was -5.83%.

As for `Cc1n[nH]c(C)c1NC(=O)NCc1ccccn1`, the cytotoxicity at 70.5 h is -8.47%.

In the case of `CN(C)S(=O)(=O)NCC1CCN(Cc2ccccc2F)CC1`, the cytotoxicity at 70.5 h is -9.47%.

Consider `COc1ccccc1CCN(C)Cc1nc(N)nc(N(C)C)n1`, for which the cytotoxicity at 70.5 h was -11.2%.

Regarding `Cn1cc(NC(=O)Cc2ccccc2Br)cc1C(N)=O`, the cytotoxicity at 70.5 h was -2.69%.

For the compound `CCCc1nc(C)c(C(=O)NS(=O)(=O)c2ccc(C#N)cc2)s1`, the cytotoxicity at 70.5 h is -5.99%.

For the compound `CN(Cc1nnc(C2CC2)n1C)C(=O)c1ccnc(OC2CCC2)c1`, the cytotoxicity at 70.5 h was -10.6%.

Consider `Cn1cc(Br)c(=O)c(NS(=O)(=O)c2cc(F)ccc2Cl)c1`, for which the cytotoxicity at 70.5 h worked out at 6.1%.

For the compound `Cc1cc(C)c2c(OCC(=O)NC(C)C)nn(C)c2n1`, the cytotoxicity at 70.5 h came to 14.7%.

Take `CCN(CC)C(=O)CCNC(=O)N1CCC(c2ccccc2)C1` (centres undefined): the cytotoxicity at 70.5 h is -6.27%.

Consider `CCc1nc(CN(C)CC2CCN(CCO)CC2)no1`, for which the cytotoxicity at 70.5 h was -9.2%.

Turning to `Cc1cc(CN2CCN(C(=O)CCc3cccc(F)c3F)CC2)on1`, the cytotoxicity at 70.5 h is -6.52%.

As to `CN(CCOc1cccc(CN)c1)C1CCOCC1`, the cytotoxicity at 70.5 h was -8.25%.

Consider `O=C(CCc1ccsc1)NCC1CCN(c2ccccc2)C1` (centres undefined), for which the cytotoxicity at 70.5 h is 2.35%.

For `CC(Cn1cccn1)NC(=O)Nc1ccc(F)cc1` (centres undefined), the cytotoxicity at 70.5 h is -4.1%.

With `O=C1CN(Cc2nnc(-c3ccc(Br)o3)o2)CCN1`, the cytotoxicity at 70.5 h is -7.06%.

For the compound `CC(Cn1cccn1)NC(=O)Nc1ccc(N(C)C)nc1` (centres undefined), the cytotoxicity at 70.5 h was 19.1%.

For `Cc1cc(NC(=O)NCCc2cccs2)n(C)n1`, the cytotoxicity at 70.5 h is -1.92%.

Turning to `Cc1cnc(C(=O)N(CCN(C)C)Cc2ccc(Cl)cc2)cn1`, the cytotoxicity at 70.5 h is -6.08%.

For `CCC(C)NC(=O)Nc1ccc(CN2CCOC2=O)cc1` (centres undefined), the cytotoxicity at 70.5 h is 18.8%.

As to `O=C(NCCCO)Nc1cccc(Cl)c1F`, the cytotoxicity at 70.5 h is -8.31%.

Consider `CCOc1cc(C)nc(N2CCN(Cc3nccn3C)CC2)n1`, for which the cytotoxicity at 70.5 h was -0.961%.

`Cn1ccnc1-c1cccc(NC(=O)NCCN2CCOCC2)c1`: the cytotoxicity at 70.5 h was -3.53%.

For `Cc1ccc(NC(=O)Cn2cc(I)cn2)cc1`, the cytotoxicity at 70.5 h was found to be 15.3%.

Regarding `CN(C)C(=O)CNC(=O)Nc1cccc(Cl)c1SC(F)F`, the cytotoxicity at 70.5 h is -4.52%.

In the case of `Cn1nc2c(cc1=O)CN(CC(=O)Nc1ccc(Cl)cn1)CC2`, the cytotoxicity at 70.5 h was -3.49%.

In the case of `Cn1cc(-c2csc(N3CCOCC3)n2)cn1`, the cytotoxicity at 70.5 h was -3.47%.

Take `CS(=O)(=O)CCSc1cccc(C#N)c1`: the cytotoxicity at 70.5 h is -4.4%.

`Cn1cc(-c2csc(N3CCN(C(=O)OC(C)(C)C)CC3)n2)cn1`: the cytotoxicity at 70.5 h is -2.04%.

With `O=C(Nc1ccnc(OC2CCOC2)c1)C1CCC1` (centres undefined), the cytotoxicity at 70.5 h is -2.33%.

Take `CC(C)c1cnc(CNc2c(F)cccc2-n2cccn2)o1`: the cytotoxicity at 70.5 h was -4.44%.

`COCc1ccccc1NC(=O)[C@@H]1CCCN1C(=O)c1ccco1`: the cytotoxicity at 70.5 h was -8.02%.

On to `Cc1n[nH]c(C2CN(CC(=O)NCCc3ccsc3)CCO2)n1` (centres undefined), for which the cytotoxicity at 70.5 h is -1.23%.

`O=C(c1ccc(Br)o1)N1CCN(Cc2ccc(OC(F)(F)F)cc2)CC1`: the cytotoxicity at 70.5 h was -2.19%.

As to `CC(C)COC(C)C(=O)N1CCN(S(C)(=O)=O)CC1` (centres undefined), the cytotoxicity at 70.5 h was -0.767%.

With `CN(C)S(=O)(=O)N1CCN(c2nccc(C(F)(F)F)n2)CC1`, the cytotoxicity at 70.5 h is -0.547%.

As for `CCc1noc(C(C)N(C)CC(=O)Nc2c(C)cccc2C)n1` (centres undefined), the cytotoxicity at 70.5 h was -4.56%.

As to `COc1ccc(NC(=O)N2CCN(c3ncccn3)CC2)cn1`, the cytotoxicity at 70.5 h is -5.14%.

Turning to `CCSc1cc(C(=O)NCCC(=O)Nc2ccccn2)ccn1`, the cytotoxicity at 70.5 h was -3.16%.

Turning to `Cc1ccc(C(=O)NC(C)CN2CCCC2=O)c(=O)[nH]1` (centres undefined), the cytotoxicity at 70.5 h is -5.25%.

With `Cc1nn(C)c(N(C)C)c1CNCC(O)c1ccccc1` (centres undefined), the cytotoxicity at 70.5 h came to 0.0769%.

As to `CC(C#N)CSc1ccccc1NCC(=O)Nc1ccc(F)cc1` (centres undefined), the cytotoxicity at 70.5 h amounted to 2.62%.

`COc1ccc(NC(C)C(=O)N2CCN(c3ncccn3)CC2)cn1` (centres undefined): the cytotoxicity at 70.5 h was determined as 2.09%.

In the case of `NS(=O)(=O)N1CCc2ccc(NC(=O)Cc3ccc(F)cc3)cc21`, the cytotoxicity at 70.5 h stood at 6.47%.

With `COCC(NC(=O)c1cc[nH]n1)c1cccc(C(F)(F)F)c1` (centres undefined), the cytotoxicity at 70.5 h is -0.606%.

On to `Cc1ccc(S(=O)(=O)NC(=O)c2cccc3c2OCCO3)c(C)c1`, for which the cytotoxicity at 70.5 h is -3.86%.

Consider `Cc1ccn(-c2ccccc2NCc2ncc[nH]2)n1`, for which the cytotoxicity at 70.5 h stood at 3.45%.

Regarding `CCSc1cc(C(=O)NCc2ccccc2O)ccn1`, the cytotoxicity at 70.5 h was -4.36%.

Take `CC(c1cccnc1)N(C)Cc1csc(-c2ccccn2)n1` (centres undefined): the cytotoxicity at 70.5 h was determined as 8.67%.

As for `CC(C)(C)C(=O)NCCC(=O)NC(C)(C)c1ccc2c(c1)OCCO2`, the cytotoxicity at 70.5 h stood at 1.98%.

Turning to `CC(OCC(F)(F)F)C(=O)N1CCCCC1` (centres undefined), the cytotoxicity at 70.5 h was 0.611%.

Consider `CCc1noc(C(C)N(C)CC(=O)Nc2ccc(C)cc2)n1` (centres undefined), for which the cytotoxicity at 70.5 h was -4.51%.

Turning to `CCc1nc(CN2CCCC(N(C)Cc3cnc(C)s3)C2)no1` (centres undefined), the cytotoxicity at 70.5 h is -2%.

Regarding `Cc1ccn(-c2ccccc2NCc2cccnc2C)n1`, the cytotoxicity at 70.5 h is -7.82%.

As for `O=C(CCc1ccccn1)N1CCc2cc(Cl)cc(Cl)c2C1`, the cytotoxicity at 70.5 h turned out to be 29.3%.

As to `CCc1nc(CN2CCCN(c3nc4ccccc4o3)CC2)no1`, the cytotoxicity at 70.5 h was found to be 6.35%.

For `O=C(c1cccc(NCCO)c1)N1CCOCC1`, the cytotoxicity at 70.5 h stood at 6.48%.

With `Cc1cc(CNC2CCCN(c3cccnn3)C2)no1` (centres undefined), the cytotoxicity at 70.5 h amounted to 5.47%.

Consider `NC(=O)c1ccc(N2CCCCC2)c(NC(=O)c2cncc(Br)c2)c1`, for which the cytotoxicity at 70.5 h was -7.05%.

`N#Cc1ccc(OCCOc2ccccc2C(=O)N2CCOCC2)cc1`: the cytotoxicity at 70.5 h was -9.24%.

Take `NC(=O)C1CCN(Cn2nc(-c3ccccc3)oc2=O)CC1`: the cytotoxicity at 70.5 h is -8.01%.

As to `CS(=O)(=O)NCC1CCCN(Cc2ccc(F)c3cccnc23)C1` (centres undefined), the cytotoxicity at 70.5 h was -12.2%.

On to `Cc1ccc(C(=O)NC2CCN(Cc3noc(CC(C)C)n3)CC2)s1`, for which the cytotoxicity at 70.5 h was determined as 7.31%.

As to `Cc1ccc(-n2nnc(CC(=O)N3CCOCC3)c2C)cc1`, the cytotoxicity at 70.5 h was -10.7%.

For the compound `C[C@H]1C[C@@H]2CCN(Cc3ccco3)C[C@H]2O1`, the cytotoxicity at 70.5 h is -7.2%.

With `CNC1CCCN(Cc2noc(C3CC3)n2)C1` (centres undefined), the cytotoxicity at 70.5 h was -7.48%.

In the case of `CCC(=O)N1CCC2(CC1)COCCN2Cc1ccc(F)cc1`, the cytotoxicity at 70.5 h was -10.7%.

As for `C[C@H]1C[C@H]2CN(Cc3ccccn3)CC[C@@H]2O1`, the cytotoxicity at 70.5 h was -3.43%.
